The values below come from ChEMBL document CHEMBL5465560, “Selectivity Literature for EUbOPEN Chemogenomic Library” (2024).

Data set [1] concerns the target T1, Protein kinase C epsilon type (Homo sapiens) (UniProt Q02156).
T1 sequence (whole entry): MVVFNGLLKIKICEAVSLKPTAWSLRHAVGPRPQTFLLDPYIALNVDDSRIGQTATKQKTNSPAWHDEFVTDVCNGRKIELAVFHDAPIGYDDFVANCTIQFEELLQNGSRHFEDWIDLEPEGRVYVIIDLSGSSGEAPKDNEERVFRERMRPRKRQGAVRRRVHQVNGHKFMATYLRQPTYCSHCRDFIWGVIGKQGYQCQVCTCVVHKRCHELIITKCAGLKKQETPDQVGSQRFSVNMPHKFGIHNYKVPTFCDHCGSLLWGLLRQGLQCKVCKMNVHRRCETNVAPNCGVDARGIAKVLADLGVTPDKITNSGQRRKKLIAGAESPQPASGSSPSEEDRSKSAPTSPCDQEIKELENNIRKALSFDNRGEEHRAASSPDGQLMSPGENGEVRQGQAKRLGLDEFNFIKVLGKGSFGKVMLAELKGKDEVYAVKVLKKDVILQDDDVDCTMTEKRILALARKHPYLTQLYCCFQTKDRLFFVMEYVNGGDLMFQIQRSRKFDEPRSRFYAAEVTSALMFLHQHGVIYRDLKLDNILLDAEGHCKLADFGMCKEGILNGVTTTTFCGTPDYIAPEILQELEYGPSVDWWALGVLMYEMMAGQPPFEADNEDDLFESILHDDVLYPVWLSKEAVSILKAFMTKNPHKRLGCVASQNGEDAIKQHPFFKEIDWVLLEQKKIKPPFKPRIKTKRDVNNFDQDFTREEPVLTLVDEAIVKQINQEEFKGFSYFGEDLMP
The data set is described as follows: Selectivity interaction (KinomeScan (DiscoverX)) EUB0001619a PRKCE. The settings on record: at 1 µM.

The target in data set [2] is T2, Receptor-interacting serine/threonine-protein kinase 1 (Homo sapiens) (UniProt Q13546).
T2 sequence (whole entry): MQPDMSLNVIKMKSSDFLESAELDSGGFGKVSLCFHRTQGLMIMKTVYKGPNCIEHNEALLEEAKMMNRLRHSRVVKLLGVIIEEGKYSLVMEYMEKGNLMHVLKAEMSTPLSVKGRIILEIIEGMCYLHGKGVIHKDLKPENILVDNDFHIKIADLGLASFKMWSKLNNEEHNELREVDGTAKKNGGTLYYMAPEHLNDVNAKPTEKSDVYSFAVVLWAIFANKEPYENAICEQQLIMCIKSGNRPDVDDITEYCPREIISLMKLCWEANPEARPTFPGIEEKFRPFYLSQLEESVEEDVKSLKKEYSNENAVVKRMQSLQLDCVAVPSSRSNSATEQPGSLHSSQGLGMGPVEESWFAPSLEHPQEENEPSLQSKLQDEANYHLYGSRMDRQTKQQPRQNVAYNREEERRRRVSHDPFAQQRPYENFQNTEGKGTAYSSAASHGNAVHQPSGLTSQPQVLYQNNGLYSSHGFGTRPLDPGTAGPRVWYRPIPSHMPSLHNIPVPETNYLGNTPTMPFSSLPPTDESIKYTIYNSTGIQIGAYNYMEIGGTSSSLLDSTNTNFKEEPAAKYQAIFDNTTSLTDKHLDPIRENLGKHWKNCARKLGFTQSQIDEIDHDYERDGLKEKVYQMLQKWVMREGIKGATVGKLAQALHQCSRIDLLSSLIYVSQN
The settings on record: at 10 µM.

Data set [3] concerns the target T3, cAMP-dependent protein kinase catalytic subunit PRKX (Homo sapiens) (UniProt P51817).
T3 sequence (whole entry): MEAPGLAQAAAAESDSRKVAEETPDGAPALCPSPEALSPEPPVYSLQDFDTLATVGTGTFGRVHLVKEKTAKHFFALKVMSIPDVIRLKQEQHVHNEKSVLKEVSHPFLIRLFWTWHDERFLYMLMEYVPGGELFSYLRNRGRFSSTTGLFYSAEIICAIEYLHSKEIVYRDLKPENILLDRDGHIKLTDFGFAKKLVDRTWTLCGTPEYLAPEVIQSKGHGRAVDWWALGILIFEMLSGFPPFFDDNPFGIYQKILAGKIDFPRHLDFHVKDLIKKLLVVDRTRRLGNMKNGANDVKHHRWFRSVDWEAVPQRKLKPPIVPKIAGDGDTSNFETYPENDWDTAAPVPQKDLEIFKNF
The data set is described as follows: Selectivity interaction (ProQinase) EUB0000171b PRKX.

Data set [4] has as its target BDNF/NT-3 growth factors receptor (Homo sapiens) (UniProt Q16620). The data set is described as follows: Selectivity interaction (ProQinase) EUB0000171b NTRK2.
For data set [5], the target named is Phosphatidylinositol 4-kinase type 2-beta (Homo sapiens) (UniProt Q8TCG2). Nature of the data set: Selectivity interaction (ProQinase) EUB0000171b PI4K2B.
The target in data set [6] is aryl hydrocarbon receptor (AHR) (Homo sapiens, UniProt P35869). The data set is described as follows: Selectivity interaction (Panel of kinases, GPCRs, ion channels and transporters (enzymatic assay)) EUB0000223bCl AHR.
For data set [7], the target named is Death-associated protein kinase 1 (Homo sapiens, UniProt P53355). Nature of the data set: Selectivity interaction (Kinase panel (DSF assay)) EUB0001559a DAPK1. Background: Differential scanning fluorimetry follows unfolding on heating by fluorescence.
Data set [8] concerns the target T4, Dual specificity mitogen-activated protein kinase kinase 6 (Homo sapiens) (UniProt P52564).
T4 sequence (whole entry): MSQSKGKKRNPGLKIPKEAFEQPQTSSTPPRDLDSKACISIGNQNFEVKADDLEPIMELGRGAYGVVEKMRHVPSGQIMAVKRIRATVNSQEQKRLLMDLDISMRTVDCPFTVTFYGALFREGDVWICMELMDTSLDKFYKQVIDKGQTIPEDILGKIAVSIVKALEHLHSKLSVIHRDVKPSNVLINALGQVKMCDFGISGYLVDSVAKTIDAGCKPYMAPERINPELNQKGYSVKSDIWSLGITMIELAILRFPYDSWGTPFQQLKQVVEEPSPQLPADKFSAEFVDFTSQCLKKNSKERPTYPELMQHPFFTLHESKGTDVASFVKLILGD
The data set is described as follows: Selectivity interaction (Kinase panel (DSF assay)) EUB0001559a MAP2K6.

The target of data set [9] is Calcium/calmodulin-dependent protein kinase type 1G (Homo sapiens) (UniProt Q96NX5). Nature of the data set: Selectivity interaction (KinomeScan (DiscoverX)) EUB0000045b CAMK1G.
In data set [10] the target is Serine/threonine-protein kinase WNK3 (Homo sapiens) (UniProt Q9BYP7). Nature of the data set: Selectivity interaction (Upstate Kinase Profiler service (Millipore)) EUB0000056c WNK3. The settings on record: at 1 µM.
For data set [11], the target named is Platelet-derived growth factor receptor beta (Homo sapiens, UniProt P09619). The data set is described as follows: Selectivity interaction (Kinase panel (enzymatic assay)) EUB0000595a PDGFRB.

For orientation: IC50 means the midpoint of a concentration-inhibition curve. A high value points to lower potency.

Sequence of Phosphatidylinositol 4-kinase type 2-beta (Homo sapiens) (Q8TCG2 whole entry): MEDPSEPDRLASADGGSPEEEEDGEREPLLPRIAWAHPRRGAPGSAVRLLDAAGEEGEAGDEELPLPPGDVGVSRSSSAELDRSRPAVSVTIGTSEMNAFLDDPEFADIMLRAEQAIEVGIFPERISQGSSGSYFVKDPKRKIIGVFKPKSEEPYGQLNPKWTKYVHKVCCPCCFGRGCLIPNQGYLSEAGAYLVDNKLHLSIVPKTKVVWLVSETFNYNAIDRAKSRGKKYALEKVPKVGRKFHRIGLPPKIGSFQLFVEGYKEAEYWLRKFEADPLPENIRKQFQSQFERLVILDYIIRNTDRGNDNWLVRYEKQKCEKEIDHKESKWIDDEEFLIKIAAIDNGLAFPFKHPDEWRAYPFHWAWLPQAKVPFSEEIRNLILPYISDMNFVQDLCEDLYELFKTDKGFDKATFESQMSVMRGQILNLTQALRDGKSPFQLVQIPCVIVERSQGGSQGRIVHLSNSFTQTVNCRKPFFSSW
Sequence of Calcium/calmodulin-dependent protein kinase type 1G (Homo sapiens) (Q96NX5 whole entry): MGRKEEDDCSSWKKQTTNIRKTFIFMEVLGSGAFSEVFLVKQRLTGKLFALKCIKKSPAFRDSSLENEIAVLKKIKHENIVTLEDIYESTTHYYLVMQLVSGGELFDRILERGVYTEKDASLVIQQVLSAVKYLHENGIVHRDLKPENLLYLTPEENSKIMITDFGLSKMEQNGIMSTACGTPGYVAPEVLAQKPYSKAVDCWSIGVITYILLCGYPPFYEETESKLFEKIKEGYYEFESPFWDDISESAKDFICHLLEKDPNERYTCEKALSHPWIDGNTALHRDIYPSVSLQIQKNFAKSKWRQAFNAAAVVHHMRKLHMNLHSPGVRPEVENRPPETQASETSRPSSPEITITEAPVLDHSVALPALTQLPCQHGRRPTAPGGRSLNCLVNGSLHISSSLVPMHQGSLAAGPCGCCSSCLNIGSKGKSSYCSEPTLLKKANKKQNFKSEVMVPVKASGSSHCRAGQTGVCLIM
Sequence of BDNF/NT-3 growth factors receptor (Homo sapiens) (Q16620 32-822 limits assumed): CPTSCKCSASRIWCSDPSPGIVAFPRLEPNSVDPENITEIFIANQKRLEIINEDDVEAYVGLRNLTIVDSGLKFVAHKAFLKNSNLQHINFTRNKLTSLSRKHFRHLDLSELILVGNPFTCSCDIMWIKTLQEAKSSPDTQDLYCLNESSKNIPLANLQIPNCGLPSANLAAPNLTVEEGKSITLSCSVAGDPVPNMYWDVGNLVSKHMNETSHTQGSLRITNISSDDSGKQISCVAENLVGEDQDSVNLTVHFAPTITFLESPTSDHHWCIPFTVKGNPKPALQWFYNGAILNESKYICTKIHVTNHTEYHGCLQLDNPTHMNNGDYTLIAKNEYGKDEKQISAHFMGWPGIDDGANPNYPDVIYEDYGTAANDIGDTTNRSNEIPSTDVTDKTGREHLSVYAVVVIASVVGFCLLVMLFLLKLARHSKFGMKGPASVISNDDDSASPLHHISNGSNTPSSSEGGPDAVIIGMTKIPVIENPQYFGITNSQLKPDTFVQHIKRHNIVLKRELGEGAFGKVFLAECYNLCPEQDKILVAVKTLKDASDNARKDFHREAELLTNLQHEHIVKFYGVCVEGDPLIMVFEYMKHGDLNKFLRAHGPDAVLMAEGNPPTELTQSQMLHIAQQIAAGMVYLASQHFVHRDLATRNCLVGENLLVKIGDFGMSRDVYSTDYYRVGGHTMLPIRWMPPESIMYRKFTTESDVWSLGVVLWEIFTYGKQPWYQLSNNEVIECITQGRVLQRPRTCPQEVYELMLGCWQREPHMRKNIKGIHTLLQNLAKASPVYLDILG
Sequence of Death-associated protein kinase 1 (P53355 whole entry, looked up): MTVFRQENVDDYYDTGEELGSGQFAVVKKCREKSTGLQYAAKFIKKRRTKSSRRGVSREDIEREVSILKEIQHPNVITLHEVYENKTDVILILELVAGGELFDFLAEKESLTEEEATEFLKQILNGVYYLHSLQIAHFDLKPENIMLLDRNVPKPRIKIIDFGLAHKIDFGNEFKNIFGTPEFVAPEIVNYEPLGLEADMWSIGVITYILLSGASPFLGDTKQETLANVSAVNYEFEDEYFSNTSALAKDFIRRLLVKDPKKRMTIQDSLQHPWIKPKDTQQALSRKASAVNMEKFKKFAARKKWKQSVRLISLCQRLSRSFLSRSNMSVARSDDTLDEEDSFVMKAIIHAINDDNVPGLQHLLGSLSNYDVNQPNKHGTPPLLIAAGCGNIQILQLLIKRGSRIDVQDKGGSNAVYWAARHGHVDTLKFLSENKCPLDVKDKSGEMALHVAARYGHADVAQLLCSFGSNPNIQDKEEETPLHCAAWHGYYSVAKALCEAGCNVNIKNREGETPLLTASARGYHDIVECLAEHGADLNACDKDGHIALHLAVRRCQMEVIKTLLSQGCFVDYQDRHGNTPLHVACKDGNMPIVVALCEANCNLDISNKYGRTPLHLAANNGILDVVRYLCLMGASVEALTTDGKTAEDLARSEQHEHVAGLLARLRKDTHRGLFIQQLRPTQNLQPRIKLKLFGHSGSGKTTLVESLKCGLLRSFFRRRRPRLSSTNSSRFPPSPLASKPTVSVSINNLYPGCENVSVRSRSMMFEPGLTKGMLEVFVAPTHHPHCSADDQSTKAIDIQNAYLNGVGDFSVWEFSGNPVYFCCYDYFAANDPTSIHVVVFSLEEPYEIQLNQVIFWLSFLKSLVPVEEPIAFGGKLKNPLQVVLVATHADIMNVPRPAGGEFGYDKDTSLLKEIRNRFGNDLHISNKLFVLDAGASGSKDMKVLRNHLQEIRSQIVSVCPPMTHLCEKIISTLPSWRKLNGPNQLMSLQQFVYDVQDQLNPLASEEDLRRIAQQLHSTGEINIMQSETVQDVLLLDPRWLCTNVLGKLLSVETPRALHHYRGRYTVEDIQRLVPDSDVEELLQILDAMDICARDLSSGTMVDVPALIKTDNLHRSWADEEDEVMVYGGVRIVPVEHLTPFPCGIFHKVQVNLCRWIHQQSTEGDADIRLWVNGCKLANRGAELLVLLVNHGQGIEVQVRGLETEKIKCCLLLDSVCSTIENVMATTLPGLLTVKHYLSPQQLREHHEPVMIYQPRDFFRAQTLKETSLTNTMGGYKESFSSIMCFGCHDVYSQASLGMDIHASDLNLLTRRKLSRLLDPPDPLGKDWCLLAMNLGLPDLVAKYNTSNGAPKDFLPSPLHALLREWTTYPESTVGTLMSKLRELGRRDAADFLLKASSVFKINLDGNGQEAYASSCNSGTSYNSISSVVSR
Sequence of Platelet-derived growth factor receptor beta (P09619 whole entry): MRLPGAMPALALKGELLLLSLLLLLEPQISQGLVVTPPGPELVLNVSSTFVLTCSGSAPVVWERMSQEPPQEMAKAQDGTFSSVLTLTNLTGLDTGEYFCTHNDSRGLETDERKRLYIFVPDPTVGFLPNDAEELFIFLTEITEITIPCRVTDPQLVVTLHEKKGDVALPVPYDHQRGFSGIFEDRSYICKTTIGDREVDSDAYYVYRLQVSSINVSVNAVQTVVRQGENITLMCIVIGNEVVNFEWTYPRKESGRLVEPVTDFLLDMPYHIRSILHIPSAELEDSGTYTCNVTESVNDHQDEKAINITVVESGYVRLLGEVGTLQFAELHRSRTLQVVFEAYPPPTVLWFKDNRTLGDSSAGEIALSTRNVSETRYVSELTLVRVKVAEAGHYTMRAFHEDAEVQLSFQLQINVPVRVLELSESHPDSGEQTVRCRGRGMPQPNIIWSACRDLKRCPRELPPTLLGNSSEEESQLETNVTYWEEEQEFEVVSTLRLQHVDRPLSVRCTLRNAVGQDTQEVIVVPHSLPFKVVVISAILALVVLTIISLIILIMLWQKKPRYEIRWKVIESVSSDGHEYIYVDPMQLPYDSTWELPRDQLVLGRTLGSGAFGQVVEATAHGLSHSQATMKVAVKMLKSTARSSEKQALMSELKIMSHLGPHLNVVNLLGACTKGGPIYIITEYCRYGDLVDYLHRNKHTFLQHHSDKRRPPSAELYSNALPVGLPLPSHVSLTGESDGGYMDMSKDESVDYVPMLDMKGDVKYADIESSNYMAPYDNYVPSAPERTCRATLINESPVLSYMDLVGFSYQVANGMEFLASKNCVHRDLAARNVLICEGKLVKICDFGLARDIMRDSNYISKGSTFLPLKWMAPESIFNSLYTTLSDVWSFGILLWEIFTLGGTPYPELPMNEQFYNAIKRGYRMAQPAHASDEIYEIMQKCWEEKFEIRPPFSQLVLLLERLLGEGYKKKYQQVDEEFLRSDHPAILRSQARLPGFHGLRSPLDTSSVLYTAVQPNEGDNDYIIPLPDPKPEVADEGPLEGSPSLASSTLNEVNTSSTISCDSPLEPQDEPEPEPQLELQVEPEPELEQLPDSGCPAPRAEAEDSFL

As for `N#Cc1cccc(-c2c[nH]c3ncnc(N4CCOCC4)c23)c1`, the % of control in data set [1] came out at 12%.

The compound `CCN(CC)CCCCNc1ncc2cc(-c3cc(OC)cc(OC)c3)c(NC(=O)NC(C)(C)C)nc2n1` had a % of control in [2] of 100%.

As to `C=CC(=O)Nc1cccc(C(=O)Nc2ccc(Nc3cc(-c4[nH]c(SC)nc4C)ccn3)cc2)c1`, the % of control is 86% in [3] (at 1 µM); 61% in [3] (at 5 µM); 89% in [4] (at 1 µM); 81% in data set [4] (at 5 µM); 128% in data set [5] (at 1 µM); 120% in data set [5] (at 5 µM).

For `COc1cc(C(=O)N2CC[C@@H](O)[C@@H](N)C2)cc2nc(-c3cc4ccccc4n3CC3CC3)n(C)c12`, the XC50 in data set [6] is 79.4 µM.

With `CN(C(=O)c1cnn2cccnc12)c1cc2c(cc1N1CCOCC1)C(=O)N(C[C@@H](F)C(C)(C)O)C2`, the dTM is -0.3 K in data set [7] and 0 K in data set [8].

Consider `C=CC(=O)Nc1cc(-n2c(=O)ccc3cnc4ccc(-c5ccc(NS(C)(=O)=O)cc5)cc4c32)ccc1C`, for which the results for the % of control in data set [9] (at 1 µM) and in data set [9] (at 10 µM) were 100% and 68%, respectively.

Take `Cc1ccc(-c2ccc3c(ccc4sc5c(c43)NC[C@@H](C)NC5=O)n2)cn1`: the % of inhibition in data set [10] was -1%.

Regarding `COCC(=O)NC/C=C/c1ccc2ncnc(Nc3ccc(Oc4ccc(C)nc4)c(C)c3)c2c1` [CP-724714], in data set [11], the half-maximal inhibitory concentration (IC50) is greater than 10 µM.
